Several values for one entry are separate records, joined by “and”; a condition that tells them apart may be missing. Equal entries are not always repeated. Where two headings read alike, the source gives them in different places.
What was measured:
[1] = system: K-Ras G12C (NCI-H358 cells); assay: Potency assay: pERK in NCI-H358 cells; assay type: cell-based, human; conditions: Homo sapiens; NCI-H358 cells, 4 hours; read-out: pERK EC50 (H358 KRAS G12C)
Summary of the method: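 Cells plated the day before were exposed for 4 h at 37° C, 5% CO2 to a 10-point, 3-fold DMSO dilution series (10 mM top stock), in duplicate. Phospho-ERK was read by AlphaLISA SureFire Ultra or by In-Cell Western with DRAQ5 DNA stain, and IC50 came from a 4-parameter sigmoidal fit.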

[2] = system: Capan-1 cells (K-Ras G12V); assay: CellTiter-Glo cell viability, Capan-1; assay type: cell-based, human; conditions: Homo sapiens, CAPAN-1, 120 h, K-Ras G12V, 5-day treatment; read-out: Capan-1 Cell Viability IC50
Summary of the method: (§1)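 Cells seeded, compound dispensed straight into wells, 5-day exposure. Plates brought to room temperature ~30 min, CellTiter-Glo luminescence measured. Normalized to DMSO (%), 4-parameter logistic fit.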

[3] = target: K-Ras G12C(GMP-PNP) binding to BRAF RBD (Homo sapiens (Human), UniProt P01116+P62937, G12C); assay: Disruption of BRAF RBD interaction with K-Ras (FRET / MOA assay), K-Ras G12C; assay type: biochemical; conditions: read-out: KRAS G12C FRET IC50
Sequence of K-Ras G12C(GMP-PNP) binding to BRAF RBD (P01116 other isoform, or with tags, fused parts or gaps G12C): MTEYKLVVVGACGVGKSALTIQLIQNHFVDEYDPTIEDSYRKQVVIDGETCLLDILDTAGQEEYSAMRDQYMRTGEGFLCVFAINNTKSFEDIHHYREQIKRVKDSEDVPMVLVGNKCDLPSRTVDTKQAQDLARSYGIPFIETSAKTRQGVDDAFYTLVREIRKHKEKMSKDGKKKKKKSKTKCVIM
Sequence of K-Ras G12C(GMP-PNP) binding to BRAF RBD (P62937 whole entry): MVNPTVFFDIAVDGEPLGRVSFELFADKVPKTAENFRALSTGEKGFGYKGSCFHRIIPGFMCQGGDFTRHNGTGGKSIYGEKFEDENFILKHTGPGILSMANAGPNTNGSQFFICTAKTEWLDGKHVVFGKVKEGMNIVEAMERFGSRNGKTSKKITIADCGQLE
Text: Note—The following protocol describes a procedure for monitoring disruption of K-Ras G12C(GMP-PNP) binding to BRAF^RBD by a compound of the invention. This protocol may also be executed substituting other Ras proteins or nucleotides.
The purpose of this biochemical assay was to measure the ability of test compounds to facilitate ternary complex formation between a nucleotide-loaded K-Ras isoform and Cyclophilin A; the resulting ternary complex disrupts binding to a BRAF^RBD construct, inhibiting K-Ras signaling through a RAF effector. Data is reported as IC50 values.
Compound was present in plate wells as a 10-point 3-fold dilution series starting at a final concentration of 30 μM. After incubation at 25° C. for 3 hours, a mixture of Anti-His Eu—W1024 and anti-GST allophycocyanin was then added to assay sample wells at final concentrations of 10 nM and 50 nM, respectively, and the reaction incubated for an additional 1.5 hours. […] Compounds that facilitate disruption of a K-Ras: RAF complex were identified as those eliciting a decrease in the TR-FRET ratio relative to DMSO control wells.

[4] = system: NCI-H358 cells (K-Ras G12C); assay: CellTiter-Glo cell viability, NCI-H358; assay type: cell-based, human; conditions: Homo sapiens, NCI-H358, 120 h, K-Ras G12C, 5-day treatment; read-out: H358 Cell Viability IC50
Summary of the method: as §1

[5] = target: KRAS G13D (Homo sapiens (Human), UniProt P01116+P62937, G13D); assay: Ras-Raf disruption/FRET/MOA assay (BRAF RBD, Cyclophilin A); assay type: biochemical; conditions: read-out: KRAS G13D FRET data IC50
Sequence of KRAS G13D (P01116 other isoform, or with tags, fused parts or gaps G13D): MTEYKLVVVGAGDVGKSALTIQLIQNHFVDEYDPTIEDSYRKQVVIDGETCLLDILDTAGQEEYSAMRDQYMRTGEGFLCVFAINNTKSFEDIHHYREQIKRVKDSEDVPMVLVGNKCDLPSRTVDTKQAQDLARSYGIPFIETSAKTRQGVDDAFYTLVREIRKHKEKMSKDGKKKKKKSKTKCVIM
Sequence of KRAS G13D (P62937 whole entry): as the sequence (P62937 whole entry) above
Summary of the method: (§2)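 TR-FRET readout: anti-His Eu-W1024 (10 nM) and anti-GST allophycocyanin (50 nM) added after 3 h, 25° C compound incubation, then 1.5 h more. Decrease in FRET ratio versus DMSO wells marks Ras:RAF disruption; IC50 reported.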

[6] = target: KRAS WT (Homo sapiens (Human), UniProt P01116+P62937); assay: as above; assay type: biochemical; conditions: read-out: KRAS WT FRET data IC50
Sequence of KRAS WT (P01116 other isoform, or with tags, fused parts or gaps): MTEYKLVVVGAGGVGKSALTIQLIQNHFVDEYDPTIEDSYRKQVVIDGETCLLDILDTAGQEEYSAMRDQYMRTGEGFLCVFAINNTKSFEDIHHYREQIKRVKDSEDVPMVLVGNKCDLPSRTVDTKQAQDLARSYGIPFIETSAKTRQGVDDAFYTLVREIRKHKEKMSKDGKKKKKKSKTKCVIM
Sequence of KRAS WT (P62937 whole entry): as the sequence (P62937 whole entry) above
Summary of the method: as §2

[7] = target: NRAS G12C (Homo sapiens (Human), UniProt P01111+P62937, G12C); assay: as above; assay type: biochemical; conditions: read-out: NRAS G12C FRET data IC50
Sequence of NRAS G12C (P01111 whole entry G12C): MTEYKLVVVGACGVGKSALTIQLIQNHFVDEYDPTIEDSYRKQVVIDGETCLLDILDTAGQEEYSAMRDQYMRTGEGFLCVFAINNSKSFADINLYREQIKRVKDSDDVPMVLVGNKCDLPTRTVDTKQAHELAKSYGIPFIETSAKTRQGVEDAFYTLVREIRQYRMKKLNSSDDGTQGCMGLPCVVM
Sequence of NRAS G12C (P62937 whole entry): as the sequence (P62937 whole entry) above
Summary of the method: as §2

[8] = target: KRAS G12C (Homo sapiens (Human), UniProt P01116+P62937, G12C); assay: as above; assay type: biochemical; conditions: read-out: KRAS G12C FRET IC50
Sequence of KRAS G12C (P01116-2 other isoform, or with tags, fused parts or gaps G12C): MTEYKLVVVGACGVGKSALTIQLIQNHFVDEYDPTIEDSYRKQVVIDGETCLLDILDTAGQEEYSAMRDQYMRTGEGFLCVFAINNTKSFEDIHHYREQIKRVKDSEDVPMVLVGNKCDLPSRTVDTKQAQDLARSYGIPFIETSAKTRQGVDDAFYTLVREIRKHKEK
Sequence of KRAS G12C (P62937 whole entry): as the sequence (P62937 whole entry) above
Summary of the method: as §2

[9] = target: KRAS G12V (Homo sapiens (Human), UniProt P01116+P62937, G12V); assay: as above; assay type: biochemical; conditions: read-out: KRAS G12V FRET IC50
Sequence of KRAS G12V (P01116 other isoform, or with tags, fused parts or gaps G12V): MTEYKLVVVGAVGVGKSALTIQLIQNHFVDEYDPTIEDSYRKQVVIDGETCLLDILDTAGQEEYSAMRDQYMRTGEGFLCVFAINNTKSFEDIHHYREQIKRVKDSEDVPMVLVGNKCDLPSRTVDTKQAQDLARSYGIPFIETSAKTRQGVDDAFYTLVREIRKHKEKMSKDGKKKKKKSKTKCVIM
Sequence of KRAS G12V (P62937 whole entry): as the sequence (P62937 whole entry) above
Summary of the method: as §2

[10] = target: KRAS G12S (Homo sapiens (Human), UniProt P01116+P62937, G12S); assay: as above; assay type: biochemical; conditions: read-out: KRAS G12S FRET IC50
Sequence of KRAS G12S (P01116 other isoform, or with tags, fused parts or gaps G12S): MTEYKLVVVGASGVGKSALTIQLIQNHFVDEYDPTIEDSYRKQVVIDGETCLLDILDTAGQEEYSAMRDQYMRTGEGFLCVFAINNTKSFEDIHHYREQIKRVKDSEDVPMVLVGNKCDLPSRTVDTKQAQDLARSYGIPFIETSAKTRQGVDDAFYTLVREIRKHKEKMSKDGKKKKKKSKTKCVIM
Sequence of KRAS G12S (P62937 whole entry): as the sequence (P62937 whole entry) above
Summary of the method: as §2

[11] = target: KRAS G12D (Homo sapiens (Human), UniProt P01116+P62937, G12D); assay: as above; assay type: biochemical; conditions: read-out: KRAS G12D FRET IC50
Sequence of KRAS G12D (P01116 other isoform, or with tags, fused parts or gaps G12D): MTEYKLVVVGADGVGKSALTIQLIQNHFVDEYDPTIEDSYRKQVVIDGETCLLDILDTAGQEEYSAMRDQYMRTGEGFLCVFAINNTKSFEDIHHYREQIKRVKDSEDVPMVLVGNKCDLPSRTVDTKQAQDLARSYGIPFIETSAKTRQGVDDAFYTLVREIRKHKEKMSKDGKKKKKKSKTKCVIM
Sequence of KRAS G12D (P62937 whole entry): as the sequence (P62937 whole entry) above
Summary of the method: as §2

[12] = target: KRAS G13C (Homo sapiens (Human), UniProt P01116+P62937, G13C); assay: as above; assay type: biochemical; conditions: read-out: KRAS G13C FRET IC50
Sequence of KRAS G13C (P01116 other isoform, or with tags, fused parts or gaps G13C): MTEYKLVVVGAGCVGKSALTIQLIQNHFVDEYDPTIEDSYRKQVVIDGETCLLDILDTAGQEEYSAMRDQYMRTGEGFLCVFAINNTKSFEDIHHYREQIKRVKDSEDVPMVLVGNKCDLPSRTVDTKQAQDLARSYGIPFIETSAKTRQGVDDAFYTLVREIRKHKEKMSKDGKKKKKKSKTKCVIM
Sequence of KRAS G13C (P62937 whole entry): as the sequence (P62937 whole entry) above
Summary of the method: as §2

[13] = system: NCI-H358 (K-Ras G12C); assay: CellTiter-Glo cell viability assay, NCI-H358; assay type: cell-based, human; conditions: Homo sapiens, NCI-H358, 120 h
Summary of the method: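 Cells seeded, compound added directly to plates; day 5: plates to RT ~30 min, CellTiter-Glo luminescence; (sample/avg DMSO)*100; 4-parameter fit.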

[14] = 5-day treatment, read-out: H358 Cell Viability assay data (K-Ras G12C, IC50)

## CCn1c(-c2cccnc2[C@H](C)OC)c2c3cc(ccc31)-c1csc(n1)C[C@H](NC(=O)[C@H](C(C)C)N(C)C(=O)N1C[C@H](C)N(C)C[C@@H]1C)C(=O)N1CCC[C@H](N1)C(=O)OCC(C)(C)C2 [Compound A283]
[1]
  EC50: < 5000 nM
[2]
  IC50: 100 to 1000 nM
[3]
  IC50: 10 to 100 nM and 1000 to 10000 nM
[4]
  IC50: 100 to 1000 nM

## CCn1c(-c2cccnc2[C@H](C)OC)c2c3cc(ccc31)-c1csc(n1)C[C@H](NC(=O)[C@H](C(C)C)N(C)C(=O)N1C[C@@H]3C[C@H]1CN3C)C(=O)N1CCC[C@H](N1)C(=O)OCC(C)(C)C2 [Compound A314]
[5]
  IC50: 100 to 1000 nM
[6]
  IC50: 100 to 1000 nM
[7]
  IC50: 100 to 1000 nM
[8]
  IC50: 100 to 1000 nM
[9]
  IC50: 100 to 1000 nM
[10]
  IC50: 100 to 1000 nM
[11]
  IC50: 100 to 1000 nM
[12]
  IC50: 100 to 1000 nM
[2]
  IC50: 100 to 1000 nM
[3]
  IC50: 100 to 1000 nM
[4]
  IC50: 100 to 1000 nM
[13]; [14]
  IC50: 0.1 to 1 µM

## CCn1c(-c2cccnc2[C@H](C)OC)c2c3cc(ccc31)-c1cc(O)cc(c1)C[C@H](NC(=O)[C@H](C(C)C)N(C)C(=O)N1CC(OC)C1)C(=O)N1CCC[C@H](N1)C(=O)OCC(C)(C)C2 [Compound A364]
[5]
  IC50: 100 to 1000 nM
[6]
  IC50: 100 to 1000 nM
[7]
  IC50: 10 to 100 nM
[8]
  IC50: 10 to 100 nM
[9]
  IC50: 100 to 1000 nM
[10]
  IC50: 100 to 1000 nM
[11]
  IC50: 100 to 1000 nM
[12]
  IC50: 10 to 100 nM
[2]
  IC50: 10 to 100 nM
[3]
  IC50: 100 to 1000 nM
[4]
  IC50: 10 to 100 nM
[13]; [14]
  IC50: 0.1 to 1 µM

## CCn1c(-c2cccnc2[C@H](C)OC)c2c3cc(ccc31)-c1cc(O)cc(c1)C[C@H](NC(=O)[C@H](C(C)C)N(C)C(=O)[C@H]1CCN(C(C)=O)C1)C(=O)N1CCC[C@H](N1)C(=O)NCC(C)(C)C2 [Compound A431]
[5]
  IC50: 1000 to 10000 nM
[6]
  IC50: 1000 to 10000 nM
[7]
  IC50: 100 to 1000 nM
[8]
  IC50: 100 to 1000 nM
[9]
  IC50: 100 to 1000 nM
[10]
  IC50: 100 to 1000 nM
[11]
  IC50: 1000 to 10000 nM
[12]
  IC50: 100 to 1000 nM
[3]
  IC50: 100 to 1000 nM
[13]; [14]
  IC50: 0.01 to 0.1 µM

## CCn1c(-c2cccnc2[C@H](C)OC)c2c3cc(ccc31)-c1csc(n1)C[C@H](NC(=O)[C@H](C(C)C)N(C)C(=O)N1CCC[C@@H](N(C)C)CC1)C(=O)N1CCC[C@H](N1)C(=O)OCC(C)(C)C2 [Compound A494]
[3]
  IC50: 100 to 1000 nM
[4]
  IC50: 10 to 100 nM
[13]; read-out: H358 Cell Viability assay data (K-Ras G12C, IC50, uM), 5-day treatment
  IC50: 0.1 to 1 µM

## CCn1c(-c2cc(N3CCN(C)CC3)cnc2[C@H](C)OC)c2c3cc(ccc31)-c1csc(n1)C[C@H](NC(=O)[C@H](C(C)C)N(C)C(=O)[C@@H]1OCC[C@@H]1c1ccccc1)C(=O)N1CCC[C@H](N1)C(=O)OCC(C)(C)C2 [Compound A593]
[1]
  EC50: < 5000 nM
[2]
  IC50: < 10 nM
[3]
  IC50: 100 to 1000 nM
[4]
  IC50: < 10 nM
[13]; [14]
  IC50: 0.1 to 1 µM

— patent US20250195521A1 (Revolution Medicines, Inc., priority 2020, published 2025)
